In PubChem BioAssay AID379:

Target: Adenylate kinase isoenzyme 1 (Homo sapiens) (UniProt P00568)
Test: AK1 binders by thermal shift, biophysical, DSF, SYPRO orange (AID 379)
Conditions: purified AK1, DSF SYPRO orange thermal shift; at 5 µM; protein 1 µM; buffer 10 mM HEPES; active compounds read high

Adenylate kinase isoenzyme 1 (Homo sapiens), sequence (P00568 whole entry, looked up): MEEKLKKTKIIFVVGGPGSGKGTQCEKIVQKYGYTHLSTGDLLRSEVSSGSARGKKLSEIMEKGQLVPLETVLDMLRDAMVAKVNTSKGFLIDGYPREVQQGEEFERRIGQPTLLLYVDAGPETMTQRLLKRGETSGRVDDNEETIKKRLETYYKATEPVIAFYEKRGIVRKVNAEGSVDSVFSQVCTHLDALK

SMILES: Nc1ncnc2c1ncn2[C@@H]1O[C@H](COP(=O)(O)OP(=O)(O)OP(=O)(O)OP(=O)(O)OP(=O)(O)OC[C@H]2O[C@@H](n3cnc4c(N)ncnc43)[C@H](O)[C@@H]2O)[C@@H](O)[C@H]1O
- Tm shift: 15.4 Celsius
